Test results published in US5883102A, “Pharmaceutically active compounds” (Astra Pharmaceuticals Limited, priority 1995, dated 1999).
Counter-ions that a name gives are not always drawn.

Molecular target: T1, human form of induced nitric oxide synthase (Homo sapiens, UniProt P35228)
T1 construct: Nitric oxide synthase is produced by cells in response to interferon; endogenous in cells; host or cells: DLD1 human colon adenocarcinoma cell line (European Collection of Animal Cell Culture, cell line number 90102540), induced with IL-1beta and IFN-gamma; crude lysate
Assay: activity against the human form of induced nitric oxide synthase, lysate of induced human colon adenocarcinoma cell line DLD1
Assay type: biochemical
Settings: IL-1β and IFN-γ induced, preincubated 1 hour at 37° C., then 1 hour at 37° C., read-out: IC50 (concentration of drug substance which gives 50% enzyme inhibition in the assay)
Procedure: Enzyme is prepared, after induction, from the cultured human colon adenocarcinoma cell line DLD1 (obtained from the European Collection of Animal Cell Culture--cell line number 90102540). DLD1 cells are cultured in RPMI 1640 medium supplemented with 10% foetal bovine serum, 4 mM L-glutamine and antibiotics (100 units/ml penicillin G, 100 μg/ml streptomycin and 0.25 μg/ml amphotericin B). Cells are routinely grown in 225 cm^3 flasks containing 35 ml kept at 37° C. and in a humified atmosphere containing 5% CO2.
Nitric oxide synthase is produced by cells in response to interferon-γ (IFN-γ) and inter-leukin-1β (IL-1β). The medium from confluent flasks is removed and replaced with 25 ml (per flask) of fresh medium containing 250 units/ml IL-1β and 1000 units/ml IFN-γ. After a period of 17-20 hours in culture, harvesting of cells is accomplished by scraping the cell monolayer from the flask surface into the culture medium. […]
Labelled L-citrulline is separated from labelled L-arginine using Dowex AG-50W. […] After allowing the samples to dry the L-citrulline is quantified by scintillation counting.
Compounds are tested at a range of concentrations and from the inhibitions obtained IC50 values are calculated.

Compound | IC50 [µM]
NC1=NC(c2ccccc2)Nc2ccccc21 (centres unmarked) [Example 1, 1,2-Dihydro-2-phenyl-4-quinazolinamine hydrochloride] | < 25
CCOC(=O)NCCC1N=C(N)c2ccccc2N1 (centres unmarked) [Example 52, Ethyl N-(4-Amino-1,2-dihydroquinazolin-2-ylethyl)carbamate hydrochloride] | < 25
